The values below come from patent US20250115595A1, “INHIBITORS OF HYPOXIA-INDUCIBLE FACTORS” (The Johns Hopkins University, priority 2021, published 2025).

SMILES strings stand for the structures.

The test system of one test is HIF transcriptional activity. As to the kind of experiment: Luciferase reporter assay (FLuc/RLuc) in hypoxic Hep3B-c1 cells. Format: cell-based. The note with it: Homo sapiens, FLuc/RLuc ratio, 1% O2, 24 hours. Here is the method:
The NCI CellMiner database contains expression data on 25,698 mRNAs in 60 human cancer cell lines that were exposed to 21,770 chemical compounds (Reinhold W C, et. al., Cancer Res. 2012; 72(14):3499-3511). The CellMiner database was interrogated for compounds that induced changes in gene expression highly correlated with those induced by acriflavine, but would be structurally unrelated to acriflavine. Compounds that satisfied these criteria were analyzed in Hep3B-c1 cells (Zhang H. et. al., Proc Natl Acad Sci USA. 2008; 105(50):19579-19586), which are stably transfected with: HIF dependent reporter plasmid p2.1, in which firefly luciferase (FLuc) coding sequences are located downstream from a hypoxia response element (HRE) and a basal SV40 promoter; and control reporter pSVR, in which Renilla luciferase (RLuc) coding sequences are downstream of the basal SV40 promoter only (FIG. 1A).
Hep3B-c1 cells (Zhang 2008), which are stably co-transfected with reporter plasmids p2.1, a hypoxia-inducible firefly luciferase reporter gene containing a hypoxia response element (HRE), and pSVR, a constitutively expressed Renilla luciferase reporter gene, were seeded on 24-well plates. Cells were treated with compounds the following day and exposed to 20% or 1% O2 for 24 hours. For transient transfection, cells were seeded, transfected with the listed plasmids and compounds, and exposed to 20% or 1% O2 for 24 hours. FLuc/RLuc ratios were determined using the Dual Luciferase Reporter Assay System (Promega) and the VICTOR Nivo plate reader (PerkinElmer).
(Reporter assays use an easily measured gene product as a stand-in for the process of interest.)
For `c1ccc2c(-c3cc(-c4c[nH]c5ccccc45)on3)c[nH]c2c1` [Compound 35-140], the IC50 – broadly, the point on the concentration scale where inhibition reaches its midpoint – worked out at 1940 nM. Turning to `Brc1ccc2c(-c3nc(-c4cnc5ncccn45)cs3)c[nH]c2c1` [Compound 12-70C], the IC50 was determined as 2310 nM. With `O=c1[nH]cc(-c2c[nH]c3ccccc23)nc1-c1c[nH]c2ccccc12` [Compound 33-123], the IC50 turned out to be 3240 nM. For `Brc1ccc2c(-c3csc(-c4c[nH]c5ccccc45)n3)c[nH]c2c1` [Compound 12-58], the 50% inhibitory concentration (IC50) turned out to be 3090 nM. The same measure, in the same setting: the same measure for `O=c1[nH]c2ccc(-c3csc(-c4c[nH]c5ccccc45)n3)cc2o1` [Compound 12-93A]: 2400 nM. Take `Fc1cccc2c(-c3nc(-c4c[nH]c5cc(Br)ccc45)cs3)c[nH]c12` [Compound 12-143]: the IC50 is 2600 nM. The same measure, in the same setting: the same measure for `Brc1ccc2[nH]cc(-c3nnc(-c4c[nH]c5ccc(Br)cc45)o3)c2c1` [Compound 33-103B]: 2870 nM. `c1ccc2c(-c3ccnc(-c4c[nH]c5ccccc45)n3)c[nH]c2c1` [Compound 35-020]: the IC50 came to 2370 nM. The same measure, in the same setting: the same measure for `Clc1ncc(-c2c[nH]c3ccccc23)nc1-c1c[nH]c2ccccc12` [Compound 34-146]: 2040 nM. In the case of `Brc1ccc2c(-c3nc(-c4c[nH]c5ccc(Br)cc45)cs3)c[nH]c2c1` [Compound 11-88], the IC50 is 2900 nM. Turning to `c1ccc2c(-c3cc(-c4c[nH]c5ccccc45)[nH]n3)c[nH]c2c1` [Compound 35-092], the IC50 amounted to 2070 nM. Still for that read-out and setting: the same measure for `Fc1ccc2c(-c3nc(-c4c[nH]c5cc(Br)ccc45)cs3)c[nH]c2c1` [Compound 12-147A]: 2520 nM; for `Clc1ccc2c(-c3nc(-c4c[nH]c5cc(Br)ccc45)cs3)c[nH]c2c1` [Compound 12-147B]: 3080 nM; for `c1ccc2c(-c3nsc(-c4c[nH]c5ccccc45)n3)c[nH]c2c1` [Compound 33-063, 3,5-di(1H-indol-3-yl)-1,2,4-thiadiazole]: 2200 nM. As for `c1ccc2c(-c3nc(-c4cnc5ncccn45)cs3)c[nH]c2c1` [Compound 12-93F], the IC50 was determined as 2480 nM. Take `c1ccc2c(-c3cncc(-c4c[nH]c5ccccc45)n3)c[nH]c2c1` [Compound 34-110]: the IC50 amounted to 1270 nM. On to `Brc1ccc2c(-c3nc(-c4c[nH]c5c(Br)cccc45)cs3)c[nH]c2c1` [Compound 13-03], for which the IC50 came out at 2690 nM. In the case of `Brc1ccc2c(-c3csc(-c4c[nH]c5cc(Br)ccc45)n3)c[nH]c2c1` [Compound 32-134C], the IC50 was found to be 2300 nM. As to `Brc1cccc2c(-c3csc(-c4c[nH]c5c(Br)cccc45)n3)c[nH]c12` [Compound 13-01], the IC50 was 2070 nM. In the case of `Brc1ccc2c(-c3nnc(-c4c[nH]c5cc(Br)ccc45)o3)c[nH]c2c1` [Compound 33-103C], the IC50 stood at 2800 nM. As to `Brc1ccc2[nH]cc(-c3nnc(-c4c[nH]c5ccccc45)o3)c2c1` [Compound 33-093B], the IC50 is 2700 nM. On the same count and under the same terms, the same measure for `c1ccc2c(-c3nnc(-c4c[nH]c5ccccc45)o3)c[nH]c2c1` [Compound 33-087]: 2510 nM. Regarding `c1ccc2c(-c3csc(-c4c[nH]c5ccccc45)n3)c[nH]c2c1` [Compound 33-057A], the IC50 amounted to 2860 nM. Turning to `c1cc(-c2c[nH]c3ccccc23)nc(-c2c[nH]c3ccccc23)c1` [Compound 34-090], the IC50 stood at 1830 nM. In the case of `Brc1ccc2[nH]cc(-c3csc(-c4c[nH]c5ccccc45)n3)c2c1` [Compound 11-147B], the IC50 came to 2920 nM.

For another test, the system named is HIF target genes. The experiment in a line: RT-qPCR of HIF target gene expression in Hep3B cells. Format: cell-based, human.
Conditions: not given
Here is the method: Based on hit compound 11-88, a number of analogs were prepared in which either halogen substitutions to the indole groups were altered or the central thiazole was replaced by imidazole, isoxazole, oxadiazole, oxazole, pyrazinone, pyridazine, pyrazine, pyrazole, pyridine, thiadiazole, triazine, or triazole. […] The bis-bromoindole thiazole 32-134D and the bis-indole thiadiazole 33-063 (FIGS. 1B and 1C) were further characterized with respect to endogenous HIF target gene expression in Hep3B cells. […] For comparison, we tested the effect of PT2385, which inhibited EPO, NDRG1, ANGPTL4, and VEGFA expression but had no effect on CA9, which is consistent with its HIF-2-selective mechanism of action (Wallace E M et al., Cancer Res. 2016; 76(18):5491-5500). None of the compounds had any effect on RPL13A expression, which is neither hypoxia-induced nor HIF-regulated (FIG. 3).
(§1) Human Hep3B and mouse Hepa1-6 cells were purchased from ATCC and grown in high-glucose (4.5 mg/ml) Dulbecco's modified Eagle's medium supplemented with 10% (vol/vol) fetal bovine serum and […] at 37° C. in a 5% CO2/95% air incubator (20% O2). Human cell line identity was authenticated by analysis of short tandem repeats, and all cell lines were maintained mycoplasma free, using PCR-based assays conducted at the Johns Hopkins University Genetic Resources Core Facility. Cells were subjected to hypoxia in a controlled atmosphere chamber (PLAS Labs) with ambient gas mixture containing 1% O2 and 5% CO2.
RNA was extracted using TRIzol Reagent (ThermoFisher). Quantitative Real-time PCR was conducted using SYBR Green PCR Master Mix (BioRad) and reactions were run using the BioRad thermal cycler (BioRad). The mRNA expression of target genes was normalized to the expression of 18S rRNA and the fold change (FC) was calculated based on the threshold cycle (Ct) as
FC=2^−Δ(ΔCt) where ΔCt=Cttarget gene−Ct18S rRNA and Δ(ΔCt)=ΔCttreatment−ΔCtcontrol.
`CS(=O)(=O)c1ccc(Oc2cc(F)cc(C#N)c2)c2c1[C@H](O)C(F)(F)C2` [PT2385, reference compound]: the CA9 expression result is listed as “no effect”; the “EPO, NDRG1, ANGPTL4 and VEGFA expression” value is “inhibited”.

Consider `c1ccc2c(-c3nsc(-c4c[nH]c5ccccc45)n3)c[nH]c2c1` [Compound 33-063, 3,5-di(1H-indol-3-yl)-1,2,4-thiadiazole], for which the “hypoxia-induced expression of HIF target genes CA9, ANGPTL4, VEGFA, NDRG1 and EPO” value is given as “inhibited”.

A further test concerns Hepa1-6 mouse HCC cells. As to the kind of experiment: RT-qPCR of hypoxia-induced mRNAs in Hepa1-6 cells. Format: cell-based. The note with it: hypoxic Hepa1-6 cells. Here is the method: Effects of 32-134D on Hepa1-6 mouse HCC cells and tumors. […] Thus, 32-134D inhibits the ability of hypoxic HCC cells to increase O2 delivery by stimulating angiogenesis (Angpt14, Pgf, Vegfa) or […] anaerobic metabolism by increasing glycolytic flux (Glut1, Pgk1, Ldha).
as §1
RNA was extracted using TRIzol Reagent (ThermoFisher). Quantitative Real-time PCR was conducted using SYBR Green PCR Master Mix (BioRad) and reactions were run using the BioRad thermal cycler (BioRad). The mRNA expression of target genes was normalized to the expression of 18S rRNA and the fold change (FC) was calculated based on the threshold cycle (Ct) as […]
Background: Real-time PCR tracks product formation cycle by cycle.
For the compound `CS(=O)(=O)c1ccc(Oc2cc(F)cc(C#N)c2)c2c1[C@H](O)C(F)(F)C2` [PT2385, reference compound], the “expression of Pgk1 mRNA” value was “no effect”. With `c1ccc2c(-c3nsc(-c4c[nH]c5ccccc45)n3)c[nH]c2c1` [Compound 33-063, 3,5-di(1H-indol-3-yl)-1,2,4-thiadiazole], the “hypoxia-induced expression of mRNA encoding Angpt14, Pgf, Vegfa and Pgk1” value is listed as “significant dose-dependent inhibition”.

Staying with this test, now noted: hypoxic Hepa1-6 cells, compared with 33-063 and 32-134D.
As for `CS(=O)(=O)c1ccc(Oc2cc(F)cc(C#N)c2)c2c1[C@H](O)C(F)(F)C2` [PT2385, reference compound], the “Angpt14, Pgf, and Vegfa mRNA expression” value is “less potent inhibitor”.

The next test concerns advanced HCC.
Experiment: not given
The note with it: advanced HCC patients; cited from earlier work.
As for `CNC(=O)c1cc(Oc2ccc(NC(=O)Nc3ccc(Cl)c(C(F)(F)F)c3)cc2)ccn1` [sorafenib], the survival benefit is recorded as 2-3 months.
